# Source: patent US12486294B2, “Radioisotope labeled compound for imaging or treatment of prostate cancer” (SEOUL NATIONAL UNIVERSITY R&DB FOUNDATION, priority 2019, dated 2025)
# Legend:
# [1] = Stability test in human serum; type: in vitro ADME; conditions: 36.5° C., after 2 hours
# Procedure: The stability test in human serum is to test the stability when it comes into contact with human serum after administration to the human body, and the stability in the body is partly tested in vitro.
# (§1) In order to examine the stability of [^99mTc]Tc-15 according to the present invention in human serum, 3.7 MBq of [^99mTc]Tc-15 (100 μL) prepared in Example 3 was added to 1 mL of human serum, mixed well, and then cultured at 36.5° C. with stirring. After 2 hours, the reaction mixture was analyzed by ITLC.
# as §1, with “of [^99mTc]Tc-16” for “of [^99mTc]Tc-15”, “Example 4” for “Example 3”
# [2] = system: PSMA-expressing 22Rv1 tumor; assay: SPECT imaging in 22Rv1 cell-transplanted mice; type: in vivo, BALB/c nude mouse; conditions: for tumor intake in SPECT image with PSMA blocked: MIP-1072 injected to selectively block PSMA; for tumor intake in SPECT image: intravenous injection; for distribution observed in SPECT image: 1 hour and 3 hours
# Procedure: Specifically, 0.1 mL of RPMI1640 culture medium containing 5×10^6 22 Rv1 cells was subcutaneously injected into the right back of a 4-week-old male BALE/c nude mouse. After 2 to 3 weeks, the present inventors confirmed that the tumor tissue had reached an appropriate size and used it in the experiment. For animal injection, [^99mTc]Tc-15 and [^99mTc]Tc-16 were each diluted in saline for injection to a concentration of 10.2 MBq/100 μL. […]
# [3] = system: PSMA-targeted 22Rv1 tumor; assay: In vivo distribution test in cancer transplantation animals; set-up: species or system BALB/c male nude mice; conditions: for intake when PSMA was blocked with PMPA / tissue with highest intake: summary of Tables 2 and 3
# Procedure: Specifically, 0.1 mL of RPMI1640 culture medium containing 5×10^6 22 Rv1 cells was subcutaneously injected into the left flank of a 4-week-old male BALB/c nude mouse. After 2 to 3 weeks, the present inventors confirmed that the tumor tissue had reached an appropriate size and used it in the experiment. For animal injection, [^99mTc]Tc-15 prepared in Example 3 and [^99mTc]Tc-16 prepared in Example 4 were each diluted in saline for injection to a concentration of 0.74 MBq/100 μL. Each of these was injected into the tail vein of the mice transplanted with cancer cells, and after 1 hour and 4 hours, cancer, blood, muscle, heart. Lung, liver, spleen, stomach, small intestine, kidney, bone, and the like were collected and their weight and radioactivity were measured.
# PSMA = PSMA (Homo sapiens, UniProt Q04609); conditions: 22Rv1 cells, 1 hour at 37° C., non-specific binding with 250 μM PMPA, nonlinear regression
# Procedure: The PSMA-positive prostate cancer cell line 22Rv1 was placed in a 24-well plate at the density of 1×10^5 cells/well, followed by culture in a 37° C., 5% CO2 incubator for 24 hours. […] 0.5 mL of the diluted solution was taken and put into cultured cells and incubated in a 37° C., 5% CO2 incubator for 1 hour. After removing the culture medium, the cells were washed twice with fresh culture medium, 1 mL of 0.5% sodium dodecyl sulfate (SDS) dissolved in phosphate buffered saline was added thereto, gently shaken to dissolve, and then transferred to a 5 mL disposable plastic test tube. The radioactivity of the tube was measured using a gamma counter. […] Specific binding was obtained by subtracting non-specific binding from total binding, and a saturation curve was drawn. […] From these saturation curves, the dissociation constant, Kd, was calculated by nonlinear regression using GraphPad Prism 7 program.
# [4] = 1 h Blockade, co-injection of 2-PMPA (100 μg)
# [5] = 4 h Blockade, co-injection of 2-PMPA (100 μg)
# Sequence of PSMA (Q04609 whole entry): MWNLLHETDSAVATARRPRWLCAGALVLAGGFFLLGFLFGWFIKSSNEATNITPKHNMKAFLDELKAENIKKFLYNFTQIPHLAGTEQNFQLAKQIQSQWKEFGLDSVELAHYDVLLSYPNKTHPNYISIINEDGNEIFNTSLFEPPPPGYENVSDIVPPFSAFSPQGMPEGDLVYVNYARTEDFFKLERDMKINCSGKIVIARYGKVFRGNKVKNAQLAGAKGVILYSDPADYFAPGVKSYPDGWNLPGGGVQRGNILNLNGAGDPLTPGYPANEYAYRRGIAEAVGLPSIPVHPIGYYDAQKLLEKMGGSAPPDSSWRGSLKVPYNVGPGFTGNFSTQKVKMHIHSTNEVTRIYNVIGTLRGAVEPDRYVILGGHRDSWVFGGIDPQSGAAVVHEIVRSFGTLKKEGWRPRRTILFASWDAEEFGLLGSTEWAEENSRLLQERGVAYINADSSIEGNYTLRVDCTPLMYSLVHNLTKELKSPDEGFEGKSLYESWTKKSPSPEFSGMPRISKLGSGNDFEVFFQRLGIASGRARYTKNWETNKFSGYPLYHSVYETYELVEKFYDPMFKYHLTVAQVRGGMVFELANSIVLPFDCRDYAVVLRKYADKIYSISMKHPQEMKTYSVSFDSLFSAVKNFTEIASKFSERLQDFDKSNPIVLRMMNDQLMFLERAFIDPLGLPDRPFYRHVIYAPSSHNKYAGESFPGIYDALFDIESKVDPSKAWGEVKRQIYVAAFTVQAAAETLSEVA
smiles,measurement,setting,value
[99Tc+].[C-]#[N+]CCC(=O)NCCCCCC(=O)NCCCCC(NC(=O)N[C@@H](CCC(=O)O)C(=O)O)C(=O)O.[C-]#[N+]CCC(=O)NCCCCCC(=O)NCCCCC(NC(=O)N[C@@H](CCC(=O)O)C(=O)O)C(=O)O.[C-]#[N+]CCC(=O)NCCCCCC(=O)NCCCCC(NC(=O)N[C@@H](CCC(=O)O)C(=O)O)C(=O)O.[C-]#[O+].[C-]#[O+].[C-]#[O+] (some centres unmarked) [[^99mTc]Tc-15],stability in human serum (ITLC),[1],most of them were present as [^99mTc]Tc-15 and hardly separated as ^99mTc
same,tumor intake in SPECT image with PSMA blocked,[2],tumor intake was not observed
same,tumor intake in SPECT image,[2]; 1 hour and 3 hours after the injection,no clear intake was observed
same,distribution observed in SPECT image,[2]; tail vein injection,not only excreted by the kidney but also ingested into the prostate cancer tissue
same,"In vivo distribution, Blood",[3]; 1 h,0.60 % ID/g
same,"In vivo distribution, Bone",[3]; 1 h,0.34 % ID/g
same,"In vivo distribution, Heart",[3]; 1 h,0.22 % ID/g
same,"In vivo distribution, Intestine",[3]; 1 h,0.78 % ID/g
same,"In vivo distribution, Kidney",[3]; 1 h,59.59 % ID/g
same,"In vivo distribution, Liver",[3]; 1 h,0.94 % ID/g
same,"In vivo distribution, Lung",[3]; 1 h,0.64 % ID/g
same,"In vivo distribution, Muscle",[3]; 1 h,0.17 % ID/g
same,"In vivo distribution, Spleen",[3]; 1 h,0.90 % ID/g
same,"In vivo distribution, Stomach",[3]; 1 h,0.31 % ID/g
same,"In vivo distribution, Tumor",[3]; 1 h,1.48 % ID/g
same,Tumor/blood,[3]; 1 h,2.5
same,Tumor/kidney,[3]; 1 h,0.02
same,Tumor/liver,[3]; 1 h,1.57
same,Tumor/muscle,[3]; 1 h,8.5
same,"In vivo distribution, Blood",[3]; [4],0.52 % ID/g
same,"In vivo distribution, Bone",[3]; [4],0.26 % ID/g
same,"In vivo distribution, Heart",[3]; [4],0.16 % ID/g
same,"In vivo distribution, Intestine",[3]; [4],0.55 % ID/g
same,"In vivo distribution, Kidney",[3]; [4],4.22 % ID/g
same,"In vivo distribution, Liver",[3]; [4],0.84 % ID/g
same,"In vivo distribution, Lung",[3]; [4],0.61 % ID/g
same,"In vivo distribution, Muscle",[3]; [4],0.11 % ID/g
same,"In vivo distribution, Spleen",[3]; [4],0.15 % ID/g
same,"In vivo distribution, Stomach",[3]; [4],0.17 % ID/g
same,"In vivo distribution, Tumor",[3]; [4],0.38 % ID/g
same,Tumor/blood,[3]; [4],0.73
same,Tumor/kidney,[3]; [4],0.09
same,Tumor/liver,[3]; [4],0.45
same,Tumor/muscle,[3]; [4],3.5
same,"In vivo distribution, Blood",[3]; 4 h,0.31 % ID/g
same,"In vivo distribution, Bone",[3]; 4 h,0.16 % ID/g
same,"In vivo distribution, Heart",[3]; 4 h,0.12 % ID/g
same,"In vivo distribution, Intestine",[3]; 4 h,0.81 % ID/g
same,"In vivo distribution, Kidney",[3]; 4 h,13.72 % ID/g
same,"In vivo distribution, Liver",[3]; 4 h,0.85 % ID/g
same,"In vivo distribution, Lung",[3]; 4 h,0.30 % ID/g
same,"In vivo distribution, Muscle",[3]; 4 h,0.08 % ID/g
same,"In vivo distribution, Spleen",[3]; 4 h,0.26 % ID/g
same,"In vivo distribution, Stomach",[3]; 4 h,0.15 % ID/g
same,"In vivo distribution, Tumor",[3]; 4 h,0.81 % ID/g
same,Tumor/blood,[3]; 4 h,2.6
same,Tumor/kidney,[3]; 4 h,0.06
same,Tumor/liver,[3]; 4 h,0.96
same,Tumor/muscle,[3]; 4 h,10.4
same,"In vivo distribution, Blood",[3]; [5],0.31 % ID/g
same,"In vivo distribution, Bone",[3]; [5],0.20 % ID/g
same,"In vivo distribution, Heart",[3]; [5],0.10 % ID/g
same,"In vivo distribution, Intestine",[3]; [5],0.97 % ID/g
same,"In vivo distribution, Kidney",[3]; [5],1.44 % ID/g
same,"In vivo distribution, Liver",[3]; [5],0.84 % ID/g
same,"In vivo distribution, Lung",[3]; [5],0.30 % ID/g
same,"In vivo distribution, Muscle",[3]; [5],0.08 % ID/g
same,"In vivo distribution, Spleen",[3]; [5],0.16 % ID/g
same,"In vivo distribution, Stomach",[3]; [5],0.14 % ID/g
same,"In vivo distribution, Tumor",[3]; [5],0.20 % ID/g
same,Tumor/blood,[3]; [5],0.65
same,Tumor/kidney,[3]; [5],0.14
same,Tumor/liver,[3]; [5],0.24
same,Tumor/muscle,[3]; [5],2.71
same,intake when PSMA was blocked with PMPA,[3],the intake was decreased
same,tissue with highest intake,[3],the highest intake in the kidney
same,Kd,PSMA,5.5 nM
[99Tc+].[C-]#[N+]CCC(=O)NCCCCCC(=O)NC(Cc1ccccc1)C(=O)N[C@H](Cc1ccccc1)C(=O)NCCCCCC(=O)NCCCCC(NC(=O)N[C@@H](CCC(=O)O)C(=O)O)C(=O)O.[C-]#[N+]CCC(=O)NCCCCCC(=O)NC(Cc1ccccc1)C(=O)N[C@H](Cc1ccccc1)C(=O)NCCCCCC(=O)NCCCCC(NC(=O)N[C@@H](CCC(=O)O)C(=O)O)C(=O)O.[C-]#[N+]CCC(=O)NCCCCCC(=O)NC(Cc1ccccc1)C(=O)N[C@H](Cc1ccccc1)C(=O)NCCCCCC(=O)NCCCCC(NC(=O)N[C@@H](CCC(=O)O)C(=O)O)C(=O)O.[C-]#[O+].[C-]#[O+].[C-]#[O+] (some centres unmarked) [[^99mTc]Tc-16],stability in human serum (ITLC),[1],most of them were present as [^99mTc]Tc-16 and hardly separated as ^99mTc
same,tumor intake in SPECT image with PSMA blocked,[2],tumor intake was not observed
same,tumor intake in SPECT image,[2]; 1 hour after the injection,the increase in radioactivity was evident
same,tumor intake in SPECT image,[2]; 4 hours after the injection,the intake was more distinct
same,distribution observed in SPECT image,[2]; tail vein injection,not only excreted by the kidney but also ingested into the prostate cancer tissue
same,"intake in prostate cancer in SPECT image, compared between the two labeled compounds","[2]; tail vein injection, FIGS. 4A and 5A",higher intake in prostate cancer
same,"In vivo distribution, Blood",[3]; 1 h,0.42 % ID/g
same,"In vivo distribution, Bone",[3]; 1 h,0.63 % ID/g
same,"In vivo distribution, Heart",[3]; 1 h,0.36 % ID/g
same,"In vivo distribution, Intestine",[3]; 1 h,0.47 % ID/g
same,"In vivo distribution, Kidney",[3]; 1 h,24.66 % ID/g
same,"In vivo distribution, Liver",[3]; 1 h,1.17 % ID/g
same,"In vivo distribution, Lung",[3]; 1 h,0.52 % ID/g
same,"In vivo distribution, Muscle",[3]; 1 h,0.13 % ID/g
same,"In vivo distribution, Spleen",[3]; 1 h,3.40 % ID/g
same,"In vivo distribution, Stomach",[3]; 1 h,0.85 % ID/g
same,"In vivo distribution, Tail",[3]; 1 h,0.49 % ID/g
same,"In vivo distribution, Tumor",[3]; 1 h,1.87 % ID/g
same,Tumor/blood,[3]; 1 h,4.43
same,Tumor/kidney,[3]; 1 h,0.08
same,Tumor/liver,[3]; 1 h,1.60
same,Tumor/muscle,[3]; 1 h,14.05
same,"In vivo distribution, Blood",[3]; [4],0.75 % ID/g
same,"In vivo distribution, Bone",[3]; [4],1.16 % ID/g
same,"In vivo distribution, Heart",[3]; [4],0.48 % ID/g
same,"In vivo distribution, Intestine",[3]; [4],0.85 % ID/g
same,"In vivo distribution, Kidney",[3]; [4],5.66 % ID/g
same,"In vivo distribution, Liver",[3]; [4],1.95 % ID/g
same,"In vivo distribution, Lung",[3]; [4],1.63 % ID/g
same,"In vivo distribution, Muscle",[3]; [4],0.22 % ID/g
same,"In vivo distribution, Spleen",[3]; [4],0.40 % ID/g
same,"In vivo distribution, Stomach",[3]; [4],1.04 % ID/g
same,"In vivo distribution, Tail",[3]; [4],1.18 % ID/g
same,"In vivo distribution, Tumor",[3]; [4],0.45 % ID/g
same,Tumor/blood,[3]; [4],0.61
same,Tumor/kidney,[3]; [4],0.08
same,Tumor/liver,[3]; [4],0.23
same,Tumor/muscle,[3]; [4],2.16
same,"In vivo distribution, Blood",[3]; 4 h,0.17 % ID/g
same,"In vivo distribution, Bone",[3]; 4 h,1.04 % ID/g
same,"In vivo distribution, Heart",[3]; 4 h,0.25 % ID/g
same,"In vivo distribution, Intestine",[3]; 4 h,1.48 % ID/g
same,"In vivo distribution, Kidney",[3]; 4 h,39.65 % ID/g
same,"In vivo distribution, Liver",[3]; 4 h,0.69 % ID/g
same,"In vivo distribution, Lung",[3]; 4 h,0.36 % ID/g
same,"In vivo distribution, Muscle",[3]; 4 h,0.07 % ID/g
same,"In vivo distribution, Spleen",[3]; 4 h,3.44 % ID/g
same,"In vivo distribution, Stomach",[3]; 4 h,0.42 % ID/g
same,"In vivo distribution, Tail",[3]; 4 h,0.48 % ID/g
same,"In vivo distribution, Tumor",[3]; 4 h,2.83 % ID/g
same,Tumor/blood,[3]; 4 h,16.70
same,Tumor/kidney,[3]; 4 h,0.07
same,Tumor/liver,[3]; 4 h,4.17
same,Tumor/muscle,[3]; 4 h,40.43
same,"In vivo distribution, Blood",[3]; [5],0.15 % ID/g
same,"In vivo distribution, Bone",[3]; [5],0.47 % ID/g
same,"In vivo distribution, Heart",[3]; [5],0.11 % ID/g
same,"In vivo distribution, Intestine",[3]; [5],1.26 % ID/g
same,"In vivo distribution, Kidney",[3]; [5],3.59 % ID/g
same,"In vivo distribution, Liver",[3]; [5],1.33 % ID/g
same,"In vivo distribution, Lung",[3]; [5],0.45 % ID/g
same,"In vivo distribution, Muscle",[3]; [5],0.05 % ID/g
same,"In vivo distribution, Spleen",[3]; [5],0.20 % ID/g
same,"In vivo distribution, Stomach",[3]; [5],0.23 % ID/g
same,"In vivo distribution, Tail",[3]; [5],0.53 % ID/g
same,"In vivo distribution, Tumor",[3]; [5],0.39 % ID/g
same,Tumor/blood,[3]; [5],2.67
same,Tumor/kidney,[3]; [5],0.11
same,Tumor/liver,[3]; [5],0.30
same,Tumor/muscle,[3]; [5],8.44
same,intake when PSMA was blocked with PMPA,[3],the intake was decreased
same,tissue with highest intake,[3],the highest intake in the kidney
same,Kd,PSMA,0.2 nM
